In patent publication US20100160356A1, “NOVEL CYCLOBUTYL COMPOUNDS AS KINASE INHIBITORS” (priority 2006, published 2010):
In brackets after ≈: the same amount, converted by molar mass.

Columns and labels:
[1] = molecular target: IGF1R (Homo sapiens, UniProt P08069); assay: Inhibition of IGF1R (flashplate assay); assay type: biochemical; conditions: flashplate method
Procedure: (§1) The test plates used are 96-well flashplate microtitre plates from Perkin Elmer (USA). The components of the kinase reaction are pipetted into the assay plate. The IGF1R kinase is incubated for 1 hr. with radioactively labelled ^33P-ATP in the presence and absence of test substances in a total volume of 100 μl at room temperature together with biotinylated poly(Glu, Tyr)4:1. The reaction is terminated using 25 μl of a 200 mM EDTA solution. After incubation for a further 30 min at room temperature, the supernatants are removed by suction, and the wells are washed three times with 100 μl of 0.9% NaCl solution each time. The radioactivity is measured using a Topcount scintillation counter (PerkinElmer, USA). IC50 values are calculated using the RS1 computer program.

[2] = molecular target: VEGF-2 (Homo sapiens, UniProt P35968); assay: Inhibition of VEGF-2 (flashplate assay); assay type: biochemical; conditions: flashplate method
Procedure: as §1, with “are 384-well” for “are 96-well”, “The VEGF-2” for “The IGF1R”, “for 3” for “for 1”

[3] = molecular target: TIE2 (Homo sapiens, UniProt Q02763); assay: Inhibition of TIE2 (flashplate assay); assay type: biochemical; conditions: flashplate method
Procedure: B4: inhibition of T1E2 (Flashplate Assay)
as §1, with “are 384-well” for “are 96-well”, “The TIE2” for “The IGF1R”, “for 3” for “for 1”

[4] = Solubility in phosphate buffer by the shake flask method; assay type: physicochemical; conditions: 37 °C, pH 7, aqueous buffer, thermodynamic from solid, pH 7.0, 37° C., 24 h shake flask
Procedure: The procedure described in Glomme et al. (J. Pharm. Sci. 94(1): 1-16, 2005) is followed. The concentration determination is carried out by HPLC with UV detection against a standard solution.
Buffer: 3.954 g of sodium dihydrogenphosphate monohydrate 6.024 g of sodium chloride +950 ml of ultrapure water. Setting of pH 7.0 using 0.1 M NaOH or 0.1 M HCl.
The samples were shaken at 37° C. and 450 rpm for 24 h. After about 7 h, the pH of the samples was checked and adjusted if necessary. It was checked whether the sample was still present in excess. Just before the end of the 24 h shaking time, the samples were again checked for pH and a precipitate.
• Ultrapure water plant: MilliQ gradient, Millipore, unit: F3PN37462D • Shaker: TiMix control, Bühler • Incubation hood: TH 15, Bühler • pH meter: 766 Calimatic Knick instrument: pH 1 • pH electrode: InLab 423 Mettler • HPLC: column: LiChroCart 125-4 LiChrospher 100 RP-18 • flow rate: 1.000 ml/min • eluents: • eluent A: 2 ml of diethylamine, for synthesis+1000 ml of methanol, LiChrosolv • eluent B: 5 g of ammonium acetate, for analysis+5 ml of methanol, LiChrosolv+995 ml of ultrapure water

[5] = molecular target: T1, IGF1 receptor (IGF1R) (Homo sapiens, UniProt P08069); assay: Inhibition of IGF1R (ELISA assay), IGF1-stimulated autophosphorylation in cells; assay type: cell-based; conditions: human tumour cells stimulated with IGF1, read-out: IC50 IGF (ELISA)
T1 construct: endogenous in cells; host or cells: MCF-7 or Calu-6
Procedure: The stimulation induces an autophosphorylation of tyrosine residues in the cytoplasmatic IGF1R domain, which triggers signal transduction cascades, which result in inhibition of apoptosis and proliferation of the cells.
The amount of phosphorylated IGF1R is determined by a receptor-specific capture ELISA or an analogous LUMINEX assay. The IGF1R from cell lysates is bound to a 96-well ELISA plate or LUMINEX beads by means of a specific antibody (“capturing”), and the tyrosine phosphorylation is detected using a biotin-labelled anti-phosphotyrosine antibody and a streptavidin-peroxidase conjugate by a chemiluminescence method or by means of a fluorescence-labelled anti-phosphotyrosine antibody.
For determination of the activity of kinase inhibitors, cells are pretreated with increasing concentrations of these compounds for 45 min and subsequently stimulated using IGF1 for 5 min. As internal control, the biological activity of the ligand IGF1 is checked, and a concentration series of an IGF1R reference inhibitor is measured.

[6] = molecular target: T2, FAK (focal adhesion kinase) (Homo sapiens, UniProt Q05397); assay: Inhibition of FAK (ELISA assay), FAK phosphorylation in cells; assay type: cell-based; conditions: human cells with FAK amplification
T2 construct: endogenous in cells; host or cells: Calu-6 or HT-29
Procedure: Activated FAK promotes the invasive growth of tumour cells and inhibits anoikis.
The amount of phosphorylated FAK is determined by a specific capture ELISA or an analogous LUMINEX assay. FAK from cell lysates is bound to a 96-well ELISA plate or LUMINEX beads by means of a specific antibody (“capturing”), and the tyrosine phosphorylation is detected using a biotin-labelled anti-phosphotyrosine antibody and a streptavidin-peroxidase conjugate by a chemiluminescence method or by means of a fluorescence-labelled anti-phosphotyrosine antibody.
For determination of the activity of kinase inhibitors, cells are pretreated with increasing concentrations of these compounds for 45 min, and the FAK phosphorylation is then determined. As internal control, a concentration series of a reference inhibitor is measured.

[7] = molecular target: PDGFRβ (Homo sapiens, UniProt P09619); assay: Inhibition of PDGFRβ (flashplate assay); assay type: biochemical; conditions: flashplate method
Procedure: as §1, with “The PDGFRβ” for “The IGF1R”, “for 3” for “for 1”, “temperature (here autophosphorylation of the kinase).” for “temperature together with biotinylated poly(Glu, Tyr)4:1.”, “using 150” for “using 25”, “a 60” for “a 200”, “with 200” for “with 100”

[8] = molecular target: T3, TGFβR1 (Homo sapiens, UniProt P36897); assay: Inhibition of TGFβR1 (flashplate assay); assay type: biochemical; conditions: flashplate method
T3 sequence (P36897 34-503): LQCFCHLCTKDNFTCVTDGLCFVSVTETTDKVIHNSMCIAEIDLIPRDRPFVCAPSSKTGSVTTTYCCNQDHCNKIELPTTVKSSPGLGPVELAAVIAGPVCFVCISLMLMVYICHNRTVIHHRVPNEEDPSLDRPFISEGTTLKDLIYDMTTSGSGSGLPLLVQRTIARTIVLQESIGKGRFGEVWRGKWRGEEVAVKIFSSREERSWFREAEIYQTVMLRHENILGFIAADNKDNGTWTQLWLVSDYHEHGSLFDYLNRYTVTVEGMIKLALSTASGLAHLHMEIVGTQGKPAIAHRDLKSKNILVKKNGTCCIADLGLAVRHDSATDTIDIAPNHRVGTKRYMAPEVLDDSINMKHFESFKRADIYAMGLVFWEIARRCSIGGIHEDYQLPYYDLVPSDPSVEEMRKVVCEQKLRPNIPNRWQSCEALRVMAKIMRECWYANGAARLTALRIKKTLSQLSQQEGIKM
Procedure: The test is carried out as described in Example B1b for IGF1R. A biotinylated is added to the TGFβR1 kinase.
The kinase assay is carried out as a 384-well flashplate assay.
The components of the kinase reaction are pipetted into the assay plate. The TGFβR1 kinase is incubated for 45 min with radioactively labelled ^33P-ATP in the presence and absence of test substances together with biotinylated substrate in a total volume of 35 μl. The reaction is terminated using 25 μl of 200 mM EDTA solution, removed by suction after 30 min at room temperature, and the wells are washed with three times with 100 μl of 0.9% NaCl solution each time. The radioactivity is measured using a Topcount scintillation counter (PerkinElmer, USA). IC50 values are calculated using the RS1 computer program.

VEGF-2, sequence (P35968 20-1356): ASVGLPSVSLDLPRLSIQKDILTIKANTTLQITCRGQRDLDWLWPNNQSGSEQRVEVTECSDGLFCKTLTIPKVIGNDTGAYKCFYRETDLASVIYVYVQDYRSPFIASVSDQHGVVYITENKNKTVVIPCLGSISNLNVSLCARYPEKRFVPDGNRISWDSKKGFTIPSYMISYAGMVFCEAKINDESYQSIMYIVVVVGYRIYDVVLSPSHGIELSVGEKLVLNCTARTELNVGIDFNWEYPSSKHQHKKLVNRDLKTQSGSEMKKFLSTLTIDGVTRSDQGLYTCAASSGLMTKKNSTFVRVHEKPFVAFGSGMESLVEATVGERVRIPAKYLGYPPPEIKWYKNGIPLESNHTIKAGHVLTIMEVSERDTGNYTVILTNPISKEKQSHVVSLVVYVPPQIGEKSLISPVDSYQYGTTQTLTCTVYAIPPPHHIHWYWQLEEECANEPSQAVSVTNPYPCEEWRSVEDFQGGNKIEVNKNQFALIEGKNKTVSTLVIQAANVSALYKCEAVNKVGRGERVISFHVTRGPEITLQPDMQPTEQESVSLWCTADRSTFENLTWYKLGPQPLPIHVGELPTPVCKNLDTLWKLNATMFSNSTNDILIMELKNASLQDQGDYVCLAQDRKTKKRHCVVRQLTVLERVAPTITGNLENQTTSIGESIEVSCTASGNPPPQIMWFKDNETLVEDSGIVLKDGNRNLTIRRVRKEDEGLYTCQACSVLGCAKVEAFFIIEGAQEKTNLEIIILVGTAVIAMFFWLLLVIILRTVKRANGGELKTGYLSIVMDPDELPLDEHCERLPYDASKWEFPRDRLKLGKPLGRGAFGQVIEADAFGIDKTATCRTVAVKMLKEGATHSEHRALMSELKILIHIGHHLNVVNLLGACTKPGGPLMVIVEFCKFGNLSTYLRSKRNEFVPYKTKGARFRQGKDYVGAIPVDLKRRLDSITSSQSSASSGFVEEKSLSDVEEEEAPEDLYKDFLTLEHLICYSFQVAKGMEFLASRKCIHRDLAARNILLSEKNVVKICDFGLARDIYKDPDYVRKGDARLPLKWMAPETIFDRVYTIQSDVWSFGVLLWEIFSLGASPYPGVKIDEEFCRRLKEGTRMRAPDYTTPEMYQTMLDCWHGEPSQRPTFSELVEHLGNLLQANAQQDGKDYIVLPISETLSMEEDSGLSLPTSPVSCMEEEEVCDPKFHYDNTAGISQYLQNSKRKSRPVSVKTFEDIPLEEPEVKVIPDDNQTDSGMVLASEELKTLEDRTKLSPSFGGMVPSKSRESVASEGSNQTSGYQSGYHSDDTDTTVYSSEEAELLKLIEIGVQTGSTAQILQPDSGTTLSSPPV
PDGFRβ, sequence (P09619 33-1106, species assumed): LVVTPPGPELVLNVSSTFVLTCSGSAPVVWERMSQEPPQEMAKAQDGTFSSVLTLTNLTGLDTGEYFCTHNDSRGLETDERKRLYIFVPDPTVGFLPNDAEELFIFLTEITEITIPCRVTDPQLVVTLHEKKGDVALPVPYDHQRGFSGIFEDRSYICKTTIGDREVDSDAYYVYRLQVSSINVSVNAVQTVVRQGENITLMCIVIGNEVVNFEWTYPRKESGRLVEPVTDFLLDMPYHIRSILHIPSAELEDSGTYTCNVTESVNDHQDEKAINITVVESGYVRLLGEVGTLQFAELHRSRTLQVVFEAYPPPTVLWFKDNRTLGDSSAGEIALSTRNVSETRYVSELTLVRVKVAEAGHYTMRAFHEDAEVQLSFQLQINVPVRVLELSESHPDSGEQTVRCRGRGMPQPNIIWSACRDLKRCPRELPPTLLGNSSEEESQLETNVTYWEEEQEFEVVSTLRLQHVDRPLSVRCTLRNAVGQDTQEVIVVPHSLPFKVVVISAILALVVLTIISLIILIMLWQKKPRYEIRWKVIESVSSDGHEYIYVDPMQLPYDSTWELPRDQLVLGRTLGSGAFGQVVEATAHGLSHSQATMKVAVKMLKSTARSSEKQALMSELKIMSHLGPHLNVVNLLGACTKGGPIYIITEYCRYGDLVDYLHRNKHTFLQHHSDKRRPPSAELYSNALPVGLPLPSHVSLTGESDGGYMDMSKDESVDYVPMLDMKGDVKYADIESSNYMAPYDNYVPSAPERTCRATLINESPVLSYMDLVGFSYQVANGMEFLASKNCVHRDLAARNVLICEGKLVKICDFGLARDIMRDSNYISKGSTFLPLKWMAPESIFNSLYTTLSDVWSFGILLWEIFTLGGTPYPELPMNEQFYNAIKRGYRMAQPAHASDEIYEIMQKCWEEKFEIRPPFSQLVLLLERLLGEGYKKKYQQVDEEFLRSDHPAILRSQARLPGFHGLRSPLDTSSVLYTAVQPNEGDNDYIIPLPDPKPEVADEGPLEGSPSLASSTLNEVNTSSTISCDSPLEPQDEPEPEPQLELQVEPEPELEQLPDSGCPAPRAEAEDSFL
TIE2, sequence (Q02763 23-1124, species assumed): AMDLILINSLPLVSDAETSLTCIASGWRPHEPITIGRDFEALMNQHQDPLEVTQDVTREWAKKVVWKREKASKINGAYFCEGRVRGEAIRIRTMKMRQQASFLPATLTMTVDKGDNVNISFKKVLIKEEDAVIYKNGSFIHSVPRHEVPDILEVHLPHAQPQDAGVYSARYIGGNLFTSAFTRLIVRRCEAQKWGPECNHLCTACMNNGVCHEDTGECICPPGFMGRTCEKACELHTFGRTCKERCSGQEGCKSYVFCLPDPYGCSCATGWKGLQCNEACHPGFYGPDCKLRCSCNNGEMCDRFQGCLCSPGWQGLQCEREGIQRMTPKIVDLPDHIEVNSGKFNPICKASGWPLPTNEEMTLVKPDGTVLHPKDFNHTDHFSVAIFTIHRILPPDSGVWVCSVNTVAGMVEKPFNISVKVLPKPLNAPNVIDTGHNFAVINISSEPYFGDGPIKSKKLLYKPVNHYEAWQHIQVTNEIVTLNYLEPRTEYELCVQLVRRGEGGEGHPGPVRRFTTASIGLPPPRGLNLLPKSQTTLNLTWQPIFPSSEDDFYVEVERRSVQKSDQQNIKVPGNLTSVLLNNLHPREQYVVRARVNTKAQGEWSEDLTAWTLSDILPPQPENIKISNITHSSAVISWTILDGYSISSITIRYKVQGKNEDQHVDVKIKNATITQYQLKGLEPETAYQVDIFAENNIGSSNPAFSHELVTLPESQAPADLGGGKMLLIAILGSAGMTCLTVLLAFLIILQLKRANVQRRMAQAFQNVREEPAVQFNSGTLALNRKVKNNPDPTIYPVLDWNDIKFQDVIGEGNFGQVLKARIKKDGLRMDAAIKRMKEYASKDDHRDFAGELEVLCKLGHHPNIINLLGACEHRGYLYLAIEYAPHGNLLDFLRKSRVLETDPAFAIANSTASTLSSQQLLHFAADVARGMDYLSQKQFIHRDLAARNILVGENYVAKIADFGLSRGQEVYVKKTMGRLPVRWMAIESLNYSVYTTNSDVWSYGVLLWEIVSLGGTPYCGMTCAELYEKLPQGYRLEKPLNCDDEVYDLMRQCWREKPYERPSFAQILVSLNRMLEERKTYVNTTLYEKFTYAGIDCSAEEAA
T1 sequence (P08069 31-1367): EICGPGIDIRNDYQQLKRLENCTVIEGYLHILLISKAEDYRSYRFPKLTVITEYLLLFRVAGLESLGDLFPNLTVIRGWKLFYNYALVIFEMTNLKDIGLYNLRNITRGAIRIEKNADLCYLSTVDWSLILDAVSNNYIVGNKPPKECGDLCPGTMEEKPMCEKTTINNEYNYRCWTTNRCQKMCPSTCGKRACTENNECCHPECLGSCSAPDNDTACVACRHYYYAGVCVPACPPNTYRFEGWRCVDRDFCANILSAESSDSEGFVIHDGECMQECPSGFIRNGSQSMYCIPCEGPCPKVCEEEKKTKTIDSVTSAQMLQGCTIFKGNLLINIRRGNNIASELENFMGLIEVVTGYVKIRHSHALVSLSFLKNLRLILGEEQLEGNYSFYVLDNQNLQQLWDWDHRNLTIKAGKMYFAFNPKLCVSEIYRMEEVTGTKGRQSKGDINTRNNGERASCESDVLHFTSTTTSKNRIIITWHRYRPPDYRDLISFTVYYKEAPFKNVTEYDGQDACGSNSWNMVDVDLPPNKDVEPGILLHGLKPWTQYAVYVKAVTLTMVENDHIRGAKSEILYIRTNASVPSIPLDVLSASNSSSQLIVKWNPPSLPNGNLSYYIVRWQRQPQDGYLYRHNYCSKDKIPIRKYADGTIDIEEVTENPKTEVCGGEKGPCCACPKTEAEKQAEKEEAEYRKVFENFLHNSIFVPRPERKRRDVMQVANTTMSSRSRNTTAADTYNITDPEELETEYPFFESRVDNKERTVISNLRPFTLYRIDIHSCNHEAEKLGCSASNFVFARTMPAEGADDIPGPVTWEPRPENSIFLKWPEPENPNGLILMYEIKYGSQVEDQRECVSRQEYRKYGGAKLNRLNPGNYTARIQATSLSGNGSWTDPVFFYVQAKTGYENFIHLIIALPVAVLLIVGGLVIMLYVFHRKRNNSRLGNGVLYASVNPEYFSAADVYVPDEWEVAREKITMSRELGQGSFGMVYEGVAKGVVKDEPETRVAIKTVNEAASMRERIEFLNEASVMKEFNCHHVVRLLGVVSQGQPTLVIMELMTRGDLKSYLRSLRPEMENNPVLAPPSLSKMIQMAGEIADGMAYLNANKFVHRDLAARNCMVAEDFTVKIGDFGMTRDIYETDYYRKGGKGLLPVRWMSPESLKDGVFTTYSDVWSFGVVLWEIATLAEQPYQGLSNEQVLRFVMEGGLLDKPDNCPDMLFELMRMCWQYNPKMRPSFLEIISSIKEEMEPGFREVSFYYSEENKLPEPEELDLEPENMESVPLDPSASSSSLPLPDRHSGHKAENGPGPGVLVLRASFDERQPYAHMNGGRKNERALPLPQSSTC
IGF1R, sequence (P08069 31-1367, species assumed): as the sequence (P08069 31-1367) above

| IC50 [1] | IC50 [2] | IC50 [3] | solubility at 24 h [4] | IC50 [5] | IC50 [6] | IC50 [7] | IC50 [8] | melting point | SMILES |
| --- | --- | --- | --- | --- | --- | --- | --- | --- | --- |
| – | – | – | 233 µg/mL (≈ 583 µM) | – | – | – | – | – | NCC1CC(n2cc(-c3cccc(OCc4ccccc4)c3)c3c(N)ncnc32)C1 (stereo not drawn) [7-(3-Aminomethylcyclobutyl)-5-(3-benzyloxyphenyl)-7H-pyrrolo[2,3-d]pyrimidin-4-ylamine, reference compound] |
| – | – | – | > 1000 µg/mL | 10000 nM | 28000 nM | – | – | – | CS(=O)(=O)c1cccc(-c2cn(C3CC(CN)C3)c3ncnc(N)c23)c1 (stereo not drawn) [Compound 11, 7-(3-Aminomethylcyclobutyl)-5-(3-methanesulfonyl-phenyl)-7H-pyrrolo[2,3-d]pyrimidin-4-ylamine] |
| 7500 nM | 1800 nM | – | – | – | 1400 nM | 700 nM | 1700 nM | 101 to 102 °C | NCC1CC(n2cc(-c3cccc(F)c3)c3c(N)ncnc32)C1 (stereo not drawn) [Compound 6, 7-(3-aminomethylcyclobutyl)-5-(3-fluorophenyl)-7H-pyrrolo[2,3-d]pyrimidin-4-ylamine] |
| – | – | – | < 1 µg/mL | – | – | – | – | – | Nc1ncnc2c1c(-c1cccc(OCc3ccccc3)c1)cn2C1CC(CNC(=O)N2CCCCC2)C1 (stereo not drawn) [Piperidine-1-carboxylic acid {3-[4-amino-5-(3-benzyloxy-phenyl)pyrrolo[2,3-d]pyrimidin-7-yl]cyclo-butylmethyl}amide, reference compound] |
| 1400 nM | 61 nM | 495 nM | – | 4100 nM | – | – | 5000 nM | – | NCC1CC(n2cc(-c3ccc4c(ccn4Cc4ccccc4)c3)c3c(N)ncnc32)C1 (stereo not drawn) [Compound 56] |
| 2300 nM | 630 nM | – | 1090 µg/mL (≈ 3530 µM) | – | – | 630 nM | 2900 nM | 319.5 to 321 °C (dec.) | NCC1CC(n2cc(-c3ccc(N)cc3)c3c(N)ncnc32)C1 (stereo not drawn) [Compound 5] |
| 2300 nM | 630 nM | 1500 nM | – | 9200 nM | 3300 nM | 630 nM | – | – | NCC1CC(n2cc(-c3ccc(N)cc3)c3c(N)ncnc32)C1 (stereo not drawn) [Compound 24] |
| – | – | – | 5 µg/mL (≈ 11.3 µM) | – | – | – | – | – | CC(=O)NCC1CC(n2cc(-c3cccc(OCc4ccccc4)c3)c3c(N)ncnc32)C1 (stereo not drawn) [N-{3-[4-Amino-5-(3-benzyloxyphenyl)pyrrolo[2,3-d]pyrimidin-7-yl]cyclobutylmethyl}acetamide, reference compound] |
| 7400 nM | 1100 nM | 7400 nM | – | – | 1100 nM | 920 nM | 2800 nM | 84 to 86 °C | NCC1CC(n2cc(-c3ccccc3)c3c(N)ncnc32)C1 (stereo not drawn) [Compound 4] |
| – | – | – | < 1 µg/mL | – | – | – | – | – | Nc1ncnc2c1c(-c1cccc(OCc3ccccc3)c1)cn2C1CC(CN2C(=O)c3ccccc3C2=O)C1 (stereo not drawn) [2-{3-[4-Amino-5-(3-benzyloxyphenyl)pyrrolo[2,3-d]pyrimidin-7-yl]cyclobutylmethyl}isoindole-1,3-dione, reference compound] |
| – | – | – | 53 µg/mL (≈ 117 µM) | – | – | – | – | – | Nc1ncnc2c1c(-c1cccc(OCc3ccccc3)c1)cn2C1CC(CN2CCCC2)C1 (stereo not drawn) [5-(3-Benzyloxyphenyl)-7-(3-pyrrolidin-1-ylmethyl-cyclobutyl)-7H-pyrrolo[2,3-d]pyrimidin-4-ylamine, reference compound] |

| SMILES | IC50 [1] | IC50 [2] | IC50 [3] | solubility at 24 h [4] | IC50 [5] | IC50 [6] | IC50 [7] | IC50 [8] | melting point |
| --- | --- | --- | --- | --- | --- | --- | --- | --- | --- |
| CCCCOc1cccc(-c2cn(C3CC(CN)C3)c3ncnc(N)c23)c1 (stereo not drawn) [Compound 7, 7-(3-Aminomethylcyclobutyl)-5-(3-butoxyphenyl)-7H-pyrrolo[2,3-d]pyrimidin-4-ylamine] | 1200 nM | 9100 nM | 910 nM | 1120 µg/mL (≈ 3070 µM) | – | – | – | – | – |
